Data taken from patent publication EP3650451A1, “COMPOUNDS AND THEIR USES AS FLUORESCENT PROBES” (Consejo Superior de Investigaciones Cientificas, priority 2017, dated 2019).

Tested on: SCC38 cells
Test: Labeling in the presence of FCCP (depolarized mitochondrial membrane), flow cytometry
Type: cell-based, human
Experimental: • Fig. 1. In vivo labeling of SCC38 cells with compound 4 at different concentrations (50, 100 and 500 nM). Scale bar: 10 µm • Fig. 2. Flow cytometry studies in SCC38 and HeLa cell lines labeled with compound 4 and Mito Tracker® Red. Histograms wherein fluorescence intensity vs number of events is represented for each of the staining times (5, 15 and 30 min) and control (Ctrl), for the SCC38 and HeLa cells and for each of the two markers. • Fig. 3. Absorption (A) and fluorescence (B) spectra, normalized to molar absorption and fluorescence quantum yield of probe 4 in different solvents; chloroform (green), acetone (black), acetonitrile (red), ethanol (blue) and water (gray). • Fig. 4. […] (A) Flow cytometry analysis of SCC38 cells incubated in the presence (+FCCP) or absence (-FCCP) of FCCP 60 µM for 3 h before staining with 20 nM of 4 or 0.5 nm of MitoTracker. The data represent the mean fluorescence intensity (MFI) of the stained cells. (B) Microscopy analysis of SCC38 cells pretreated or not with FCCP before co-staining with 20 nM of 4 and 0.5 nm of MitoTracker. The graphs show the fluorescence profiles of the regions of interest indicated with white lines in the right-hand panels. Scale bars: 10 µm). • Fig. 5. […] The data represent the mean fluorescence intensity (MFI) of the stained cells (upper panels) and representative images of the cytometry profiles (lower panels). • Fig. 7. […] (B) The data represent the mean fluorescence intensity (MFI) of the labeled cells.
The labeling was analyzed by flow cytometry in the presence of carbonyl cyanide-p-(trifluoromethoxy)phenylhydrazone (FCCP), a protonophore used to reduce the mitochondrial membrane potential (ΔΨm) through depolarization of the mitochondrial membrane. […] Indeed, the suppression of dye-mitochondria electrostatic attraction as a passive labeling mechanism reduces the concentration of the dye in the cell organelle and, thus, the probability and extent of the fluorescence deactivation processes, with the ensuing increase in their efficiency. […]

## CC1=CC(C)=[N+]2C1=C(c1c(C)cc(C)cc1C)c1c(C)cc(C)n1[B-]21OC(=O)C[C@H](C[N+](C)(C)C)O1 (some centres unmarked) [Compound 4]
60 µM FCCP for 3 h at 37 °C
  labeling of depolarized mitochondria: capable of labeling depolarized mitochondria
60 µM FCCP for 3 h at 37 °C before staining, 20 nM of 4 or 0.5 nM of MitoTracker
  mitochondrial fluorescence of cells treated with FCCP: increase in fluorescence
